Experimental data: patent US20220024882A1, “NOVEL TUMOR ANTIGEN BINDING AGENTS AND USES THEREOF” (ITM Isotopen Technologien München AG, priority 2018, published 2022)

Tests used:
Radiolytic stability = assay type: physicochemical; conditions: 250 MBq/500 μL saline, room temperature, with or without L-ascorbic acid
Experimental: Radiolytic stability over time was assessed for Ibu-sPSMA in three independent experiments. For this purpose, Ibu-sPSMA was labeled with ^177Lu in a volume of 120 μL at a specific activity of 50 MBq/nmol with or without the addition of L-ascorbic acid (3 mg). After quality control using HPLC (t=0, radiochemical purity ≥98%), the labeling solutions were diluted with saline to 250 MBq/500 μL and incubated at room temperature. The radioligand's integrity was determined by HPLC after 1 h, 4 h and 24 h incubation time as previously reported (Siwowska et al., Mol. Pharmaceutical 2017, 14, (2), 523-532). The HPLC chromatograms were analyzed by integration of the peaks representing the radiolabeled product, the released ^177Lu as well as degradation products of unknown structure (FIG. 15). A quantitative assessment was performed by expressing the peak area of the intact product as percentage of the sum of integrated peak areas of the entire chromatogram.

[1] = n-Octanol/PBS distribution coefficient (log D); assay type: physicochemical
Experimental: The n-octanol/PBS distribution coefficient of the five exemplified PSMA-binding agents ^177Lu-Ibu-PSMA, ^177Lu-Ibu-Dα-PSMA, ^177Lu-Ibu-Dβ-PSMA, ^177Lu-Ibu-N-PSMA and ^177Lu-Ibu-DAB-PSMA in a n-octanol/PBS system was performed in a similar manner as previously reported (Benesova, M.; Umbricht, C. A.; Schibli, R.; Müller, C. Albumin-binding PSMA ligands: optimization of the tissue distribution profile. Mol Pharm 2018, 15, (3), 934-946).

[2] = tested on: PSMA-negative PC-3 flu tumor cells; assay: Cell uptake, PSMA-negative cells; assay type: cell-based; conditions: after 4 h
From the text: Cell uptake and internalization of ^177Lu-Ibu-PSMA, ^177Lu-Ibu-Dα-PSMA, ^177Lu-Ibu-Dβ-PSMA, ^177Lu-Ibu-N-PSMA and ^177Lu-Ibu-DAB-PSMA were investigated using PSMA-positive PC-3 PIP and PSMA-negative PC-3 flu tumor cells kindly provided by Prof. Dr. Martin Pomper (John Hopkins Institutions, Baltimore, U.S.; Eiber, M.; Fendler, W. P.; Rowe, S. P.; Calais, J.; Hofman, M. S.; Maurer, T.; Schwarzenboeck, S. M.; Kratowchil, C.; Herrmann, K.; Giesel, F. L. Prostate-specific membrane antigen ligands for imaging and therapy. J Nucl Med 2017, 58, (Suppl 2), 67S-76S). Each radioligand was investigated by the performance of experiments performed 3 times in triplicate with PC-3 PIP tumor cell and once in triplicate with PC-3 flu tumor cells.
Cell uptake and internalization of ^177Lu-Ibu-sPSMA were investigated using PSMA-positive PC-3 PIP and PSMA-negative PC-3 flu tumor cells kindly provided by Prof. Dr. Martin Pomper (Johns Hopkins University School of Medicine, Baltimore, Md., U.S.A.) (Eiber, et al.; J Nucl Med 2017, 58, (Suppl 2), 67S-76S). ^177Lu-Ibu-sPSMA was investigated by performing experiments 3 times in 6 replicates with PC-3 PIP tumor cells and 3 times in 6 replicates with PC-3 flu tumor cells.

## CC(C)Cc1ccc(C(C)C(=O)NCC[C@H](NC(=O)CN2CCN(CC(=O)O)CCN(CC(=O)O)CCN(CC(=O)O)CC2)C(=O)NCC2CCC(C(=O)N[C@@H](Cc3ccc4ccccc4c3)C(=O)NCCCC[C@H](NC(=O)N[C@@H](CCC(=O)O)C(=O)O)C(=O)O)CC2)cc1 (stereo partly drawn) [^177Lu-Ibu-sPSMA, metal not drawn]
Radiolytic stability
  radiolytic stability (percentage of intact radioligand up to 24 h): significantly more stable than ^177Lu-PSMA-617 and all other ibuprofen-derivatized PSMA radioligands
[1]
  logD: -2.43 ± 0.01
[2]
  uptake in PC-3 flu tumor cells: < 0.1%
